For assay [1], the target named is human recombinant KDM1A/CoREST protein (Homo sapiens, UniProt O60341). Description: Assay of enzyme inhibition of KDM1A (LSD1), TR-FRET.
Method: The intensity of the light emission is proportional to the level of biotinylated reaction product. The complex of human recombinant KDM1A/CoREST protein was produced in E. coli as separate proteins and co-purified as previously described.
Demethylase reaction was started by the addition of 50 nM histone H3K4 monomethylated.
The resulting mixture was incubated in the dark for 1 h at RT.
The subject of assay [2] is human leukemia MV4-11 cells. Kind of assay: Cell growth, CellTiter-Fluor Cell Viability Assay, MV4-11. Format: cell-based. Conditions: 48 h incubation, read-out: IC50 against human leukemia MV4-11 cells. The text has this:
(§1) The CellTiter-Fluor™ Cell Viability Assay measures the conserved and constitutive protease activity within live cells and therefore acts as a marker for cell viability.
(§2) CellTiter-Flor® (Promega) is as a nonlytic, single-reagent-addition fluorescence assay that measures the relative number of living cells in a culture population after experimental manipulation. The CellTiter-Fluor™ Cell Viability Assay measures the conserved and constitutive protease activity within live cells and therefore acts as a marker for cell viability.
(§3) Human leukemia MV4-11 cells, (obtained from the Deutsche Sammlung von Mikroorganismen und Zellkulturen, ACC 102) or NB4 cells, (obtained from the Deutsche Sammlung von Mikroorganismen und Zellkulturen) in exponential growth, were incubated for 48 h with different concentrations of the inhibitors. After 48 h a volume of CellTiter-Fluor® Reagent equal to one fifth of volume of cell culture medium was added. The content was mixed and incubates for at least 90 min at 37° C. degree to obtain a stable signal. The fluorescence was recorded using an excitation wavelength of 360 nm and an emission at 535 nm. The IC50 was calculated using GraphPad Software.

Another assay relates to human leukemia NB4 cells. Kind of assay: Cell growth, CellTiter-Fluor Cell Viability Assay, NB4. Conditions: NB-4, 48 h incubation, read-out: IC50 against human leukemia NB4 cells. The format is cell-based.
From the text: as §1, §2, §3

Each structure is given as a SMILES string. Structures can show the parent of a compound that is named as a salt.

As a reminder, the IC50 is the concentration at which inhibition is half-maximal. Take `Cn1c(C(=O)Nc2cccc(OCc3ccncc3)c2)cc2sccc21` [Example 21, 4-methyl-N-[3-(4-pyridylmethoxy)phenyl]thieno[3,2-b]pyrrole-5-carboxamide]: the IC50 is under 10 µM in assay [1], under 10 µM in assay [2] and under 20 µM in the assay with human leukemia NB4 cells.
For `Cn1c(C(=O)Nc2ccccc2COc2ccc(OCC3CCNC3)cc2)cc2sccc21` (stereo not drawn) [Example 5, 4-methyl-N-[2-[[4-(pyrrolidin-3-ylmethoxy)phenoxy]methyl]phenyl]thieno[3,2-b]pyrrole-5-carboxamide], the IC50 was under 10 µM in assay [1], under 10 µM in assay [2] and under 20 µM in the assay on human leukemia NB4 cells.
Turning to `Cn1c(C(=O)Nc2ccccc2COc2ccc(OC3CCNC3)cc2)cc2sccc21` (stereo not drawn) [Example 16, 4-methyl-N-[2-[(4-pyrrolidin-3-yloxyphenoxy)methyl]phenyl]thieno[3,2-b]pyrrole-5-carboxamide], the 50% inhibitory concentration (IC50) was under 10 µM in assay [1], under 10 µM in assay [2] and under 20 µM in the assay on human leukemia NB4 cells.
As for `CN1CCC(Oc2cccc(OCc3ccccc3NC(=O)c3cc4sccc4n3C)c2)CC1` [Example 17, 4-methyl-N-[2-[[3-[(1-methyl-4-piperidyl)oxy]phenoxy]methyl]phenyl]thieno[3,2-b]pyrrole-5-carboxamide], the IC50 in assay [1] is under 10 µM; in assay [2], under 10 µM; in the assay on human leukemia NB4 cells it was under 20 µM.
In the case of `Cn1c(C(=O)Nc2ccccc2COc2cccc(OC3CCNCC3)c2)cc2sccc21` [Example 18, 4-methyl-N-[2-[[3-(4-piperidyloxy)phenoxy]methyl]phenyl]thieno[3,2-b]pyrrole-5-carboxamide], the results for the IC50 (in assay [1]; in assay [2]; in the assay with human leukemia NB4 cells) were under 10 µM, under 10 µM and under 20 µM, respectively.
Regarding `Cn1c(C(=O)Nc2ccccc2COc2ccc(OC[C@@H]3CCNC3)cc2)cc2sccc21` [Example 4, 4-methyl-N-[2-[[4-[[(3R)-pyrrolidin-3-yl]methoxy]phenoxy]methyl]phenyl]thieno[3,2-b]pyrrole-5-carboxamide], the figures for the concentration for half-maximal inhibition (IC50) (in assay [1]; in assay [2]; with human leukemia NB4 cells) were under 10 µM, under 10 µM and under 20 µM, respectively.
As to `CCn1c(C(=O)Nc2ccccc2COc2ccc(OC3CCNCC3)cc2)cc2sccc21` [Example 8, 4-ethyl-N-[2-[[4-(4-piperidyloxy)phenoxy]methyl]phenyl]thieno[3,2-b]pyrrole-5-carboxamide], the IC50 in assay [1] was under 10 µM; in assay [2], under 10 µM; in the assay with human leukemia NB4 cells it was under 20 µM.
With `Cn1c(C(=O)Nc2ccccc2CNc2ccc(OC3CCNCC3)cc2)cc2sccc21` [Example 63, 4-Methyl-N-[2-[[4-(4-piperidyloxy)anilino]methyl]phenyl]thieno[3,2-b]pyrrole-5-carboxamide dihydrochloride], the results for the IC50 (in assay [1]; in assay [2]; in the assay on human leukemia NB4 cells) were under 10 µM, under 10 µM and under 20 µM, respectively.
With `Cn1c(C(=O)Nc2cccc(COc3ccc(OC4CCNCC4)cc3)c2)cc2sccc21` [Example 10, 4-methyl-N-[3-[[4-(4-piperidyloxy)phenoxy]methyl]phenyl]thieno[3,2-b]pyrrole-5-carboxamide], the 50% inhibitory concentration (IC50) in assay [1] was under 10 µM; in assay [2], under 10 µM; in the assay on human leukemia NB4 cells it was under 20 µM.
For `CCOCc1cccc(NC(=O)c2cc3sccc3n2C)c1COc1ccc(OC2CCNCC2)cc1` [Example 50, N-[3-(Ethoxymethyl)-2-[[4-(4-piperidyloxy)phenoxy]methyl]phenyl]-4-methyl-thieno[3,2-b]pyrrole-5-carboxamide hydrochloride], the figures for the IC50 (in assay [1]; in assay [2]; with human leukemia NB4 cells) were under 10 µM, under 10 µM and under 20 µM, respectively.
Take `CN1CCN(Cc2ccc(OCc3ccccc3NC(=O)c3cc4sccc4n3C)cc2)CC1` [Example 20, 4-methyl-N-[2-[[4-[(4-methylpiperazin-1-yl)methyl]phenoxy]methyl]phenyl]thieno[3,2-b]pyrrole-5-carboxamide]: the IC50 was under 10 µM in assay [1], under 10 µM in assay [2] and under 20 µM in the assay with human leukemia NB4 cells.

The values above are taken from patent publication US10183952B2, “Thienopyrroles as histone demethylase inhibitors” (ISTITUTO EUROPEO DI ONCOLOGIA S.R.L., priority 2014, dated 2019).
